{
  "source": "BigSolDB 2.1",
  "data": [
    {"smiles": "CCOC(=O)c1ccc(N)cc1", "values": [
      {"measurement": "solubility (mole fraction)", "setting": "in cyclohexane, 298.15 K", "result": 0.00107},
      {"measurement": "solubility (mole fraction)", "setting": "in cyclohexane, 303.15 K", "result": 0.00134},
      {"measurement": "solubility (mole fraction)", "setting": "in cyclohexane, 308.15 K", "result": 0.00185},
      {"measurement": "solubility (mole fraction)", "setting": "in cyclohexane, 313.15 K", "result": 0.00225},
      {"measurement": "solubility (mole fraction)", "setting": "in isopropyl myristate, 298.15 K", "result": 0.0637},
      {"measurement": "solubility (mole fraction)", "setting": "in isopropyl myristate, 303.15 K", "result": 0.0764},
      {"measurement": "solubility (mole fraction)", "setting": "in isopropyl myristate, 308.15 K", "result": 0.102},
      {"measurement": "solubility (mole fraction)", "setting": "in isopropyl myristate, 313.15 K", "result": 0.121},
      {"measurement": "solubility (mole fraction)", "setting": "in n-octanol, 298.15 K", "result": 0.0628},
      {"measurement": "solubility (mole fraction)", "setting": "in n-octanol, 303.15 K", "result": 0.0753},
      {"measurement": "solubility (mole fraction)", "setting": "in n-octanol, 308.15 K", "result": 0.0916},
      {"measurement": "solubility (mole fraction)", "setting": "in n-octanol, 313.15 K", "result": 0.113},
      {"measurement": "solubility (mole fraction)", "setting": "in water, 298.15 K", "result": 0.000105},
      {"measurement": "solubility (mole fraction)", "setting": "in water, 303.15 K", "result": 0.000126},
      {"measurement": "solubility (mole fraction)", "setting": "in water, 308.15 K", "result": 0.000159},
      {"measurement": "solubility (mole fraction)", "setting": "in water, 313.15 K", "result": 0.000186}
    ]}
  ]
}
